System: IL2 release from Jurkat cells (T cell line Jurkat 6.1)
Assay: Effect of compounds on IL-2 secretion in T lymphocytes (anti-CD3/anti-CD28 stimulated, ELISA)
Format: cell-based
Conditions: control inhibitors; plates 2 and 3
Procedure: The T cell line Jurkat 6.1 (ATCC) was used. Cells were pre-treated for 30 min with 1 μM or 10 μM of the respective compound and then stimulated with plate-bound anti-CD3 (BD Pharmingen) and anti-CD28 (AnCell). DMSO was used as vehicle control. […] After 24 hs the supernatant was collected and IL-2 secretion was measured by ELISA.
Compounds were prepared by dissolution in DMSO to yield final concentrations of 1 and 10 μg/ml

CN[C@@H]1C[C@H]2O[C@@](C)([C@@H]1OC)n1c3ccccc3c3c4c(c5c6ccccc6n2c5c31)C(=O)NC4 [Stauros]
IL-2 pg/ml: 117.75 pg/mL

— patent US9260376B2, “Compounds for use in the treatment of immune related inflammatory disease” (VENANTIUS LIMITED, priority 2011, dated 2016)
